Calls of active or inactive are those of the source. The rule behind the calls is not given here.
These compounds were tested against Nuclear receptor coactivator 1 (Homo sapiens) (UniProt Q15788) (assay: inhibition of NCOA1 transcriptional coactivation in cells – cell-based, luciferase reporter, luminescence, dose response (AID 602235;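 note: cells transfected with pGL4.31 reporter plus pBIND-SRC1 vector; potency is for inhibitors that lower SRC1 reporter luminescence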)). Details: cell-based SRC1 luciferase reporter.
Sequence of Nuclear receptor coactivator 1 (Homo sapiens) (Q15788 whole entry, looked up): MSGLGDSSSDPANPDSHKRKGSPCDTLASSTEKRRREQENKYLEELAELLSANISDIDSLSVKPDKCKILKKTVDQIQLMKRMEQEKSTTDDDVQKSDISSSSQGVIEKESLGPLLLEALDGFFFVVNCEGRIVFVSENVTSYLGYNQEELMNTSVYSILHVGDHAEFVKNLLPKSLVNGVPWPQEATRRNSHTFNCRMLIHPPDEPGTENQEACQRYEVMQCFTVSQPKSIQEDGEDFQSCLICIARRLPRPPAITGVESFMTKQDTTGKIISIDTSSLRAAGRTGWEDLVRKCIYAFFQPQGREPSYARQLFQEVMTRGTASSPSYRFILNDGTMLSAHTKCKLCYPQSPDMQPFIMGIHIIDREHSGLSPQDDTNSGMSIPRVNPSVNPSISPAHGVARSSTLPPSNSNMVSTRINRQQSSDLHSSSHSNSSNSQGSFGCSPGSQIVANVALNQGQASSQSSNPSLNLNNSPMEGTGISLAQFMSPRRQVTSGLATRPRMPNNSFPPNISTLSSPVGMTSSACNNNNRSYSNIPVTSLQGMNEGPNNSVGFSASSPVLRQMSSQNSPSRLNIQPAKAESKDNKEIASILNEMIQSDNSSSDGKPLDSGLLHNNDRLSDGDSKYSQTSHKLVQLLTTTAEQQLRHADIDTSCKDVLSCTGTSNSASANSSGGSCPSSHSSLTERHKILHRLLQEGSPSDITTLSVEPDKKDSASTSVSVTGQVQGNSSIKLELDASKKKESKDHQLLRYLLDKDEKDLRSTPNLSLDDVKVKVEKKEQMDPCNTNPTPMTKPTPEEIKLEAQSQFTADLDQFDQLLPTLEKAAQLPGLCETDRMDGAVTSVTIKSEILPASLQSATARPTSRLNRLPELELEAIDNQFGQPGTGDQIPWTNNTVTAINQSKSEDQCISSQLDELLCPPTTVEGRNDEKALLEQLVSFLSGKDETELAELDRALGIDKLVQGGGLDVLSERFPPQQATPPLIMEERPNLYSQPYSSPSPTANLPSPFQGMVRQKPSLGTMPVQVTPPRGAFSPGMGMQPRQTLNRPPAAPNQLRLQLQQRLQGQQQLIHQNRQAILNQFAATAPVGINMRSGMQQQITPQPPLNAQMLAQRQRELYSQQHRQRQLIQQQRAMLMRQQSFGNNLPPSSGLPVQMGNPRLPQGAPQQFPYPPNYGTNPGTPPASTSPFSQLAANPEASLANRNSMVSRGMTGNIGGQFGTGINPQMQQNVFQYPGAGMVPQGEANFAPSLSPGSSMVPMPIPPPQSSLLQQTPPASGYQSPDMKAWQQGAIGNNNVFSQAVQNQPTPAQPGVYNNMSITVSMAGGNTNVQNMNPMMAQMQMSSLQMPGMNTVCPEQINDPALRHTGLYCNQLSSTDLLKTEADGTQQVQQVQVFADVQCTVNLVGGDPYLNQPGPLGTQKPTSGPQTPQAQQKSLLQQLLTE

| SMILES | IC50 |
| --- | --- |
| COc1ccc(Nc2ncnc3ccc(Br)cc23)c(OC)c1 | 2.44 µM |
| COc1ccccc1NS(=O)(=O)c1cccc(NC(=O)c2cncc(Br)c2)c1 | inactive |
| COc1ccccc1-c1cc2nc(-c3ccccc3)cc(N3CCN(C(=O)c4ccco4)CC3)n2n1 | inactive |
| O=C(O)c1ccccc1C(=O)Nc1ccc(Oc2cccc3ccccc23)cc1 | > 35.9 µM (inactive) |
| Cc1nn(CC(=O)N2CCN(c3cccc(C(F)(F)F)c3)CC2)c(=O)c2cccn12 | inactive |
| O=C(N/N=C/c1cc([N+](=O)[O-])ccc1O)c1cccc(N2CCCC2=O)c1 | inactive |
| CC(=O)c1cc2c(C)cc(=O)oc2cc1O | > 35.9 µM (inactive) |
| CCN(CC(=O)Nc1ccc(NC(C)=O)cc1)C(=O)C1(c2ccc(Cl)cc2)CCC1 | inactive |
| O=C(Nc1cccnc1)c1ccc(C(=O)Nc2cccnc2)cc1 | > 35.9 µM (inactive) |
| Cc1ccccc1C(=O)/C(C#N)=N/Nc1c(C)n(C)n(-c2ccccc2)c1=O | inactive |
| CCOC(=O)c1c(NC(=O)C(C)N2CCN(C(=O)c3ccco3)CC2)sc2c1CCCC2 (centres undefined) | inactive |
| Cc1ccc(O)c(C(=O)c2cnn(C(=O)COc3ccc(Cl)cc3)c2)c1 | inactive |
| CCN(Cc1ccncc1)C(=O)CC1C(=O)NCCN1Cc1ccc(F)c(F)c1 (centres undefined) | inactive |
| Cc1nn(C(C)(C)C)c(C)c1/C=N/OC(=O)Nc1ccc(Cl)c(Cl)c1 | inactive |
